In paper PMC6559944 (Journal of medicinal chemistry, 2019):
“Also recorded” adds a separate entry of the source. Like-named read-outs stand apart in the source and are kept apart here.

Legend:
[1] = mouse, in vivo, 25 mg/kg; for Half Life: po
[2] = mice, 25 mg/kg PO, feces collected 24 h
[3] = system: Nluc-expressing C. parvum; conditions: for Efficacy (reduction in oocyst shedding / infection), in words: oral, 5 days, doses of Table 3
[4] = system: human ether-á-go-go related gene (hERG); conditions: cited from earlier work
[5] = mouse, in vivo
[6] = rat
[7] = mouse, in vivo; remark: listed apart in the source
[8] = IFN-γ KO mice, 60 mg/kg QD for 5 days

5-amino-3-(2-cyclopropoxyquinolin-6-yl)-1-(4-hydroxybutan-2-yl)-1H-pyrazole-4-carboxamide [Compound 10]
Oral Clearance [1]: 0.1 mL/min
Half Life [1]: 2.047 h
Fecal concentration from 25 mg/kg dose [2]: 4.5 µM

5-amino-3-(7-cyclopropoxyquinolin-3-yl)-1-(4-hydroxybutan-2-yl)-1H-pyrazole-4-carboxamide [Compound 11]
Oral Clearance [1]: 0.7 mL/min
Half Life [1]: 1.42 h
Efficacy (reduction in oocyst shedding / infection), in words ([3]; IFN-γ KO mice): significant reduction in oocyst shedding

CCOc1ccc2cc(-c3nn(CC4CCN(C)CC4)c4ncnc(N)c34)ccc2c1 [BKI 1294]
hERG activity in vitro [4]: has shown activity against the human ether-á-go-go related gene (hERG) in vitro

CCOc1ccc2cc(-c3nn(C(C)(C)C)c(N)c3C(N)=O)cnc2c1 [BKI 1517]
hERG inhibition signal in vitro [4]: did not have significant in vitro hERG inhibition signal

CCOc1ccc2cc(-c3nn(CC(C)(C)CO)c(N)c3C(N)=O)ccc2c1 [Compound 3, 5-amino-3-(6-ethoxynaphthalen-2-yl)-1-(3-hydroxy-2,2-dimethylpropyl)-1H-pyraz-+ole-4-carboxamide]
Efficacy (reduction in oocyst shedding / infection), in words ([3]; IFN-γ KO mice): failed to reduce infection; also recorded: Failed efficacy, low c-Src IC50
Fecal concentration from 25 mg/kg dose [2]: 7.6 µM

CCOc1ccc2cc(-c3nn(C(C)CCO)c(N)c3C(N)=O)cnc2c1 (centres unmarked) [Compound 7, 5-amino-3-(7-ethoxyquinolin-3-yl)-1-(4-hydroxybutan-2-yl)-1H-pyrazole-4-carboxamide]
Efficacy (reduction in oocyst shedding / infection), in words ([3]; IFN-γ KO mice): significant reduction in oocyst shedding
Fecal concentration from 25 mg/kg dose [2]: 1.1 µM

CCOc1ccc2cc(-c3nn(C(C)CCO)c(N)c3C(N)=O)ccc2c1 (centres unmarked) [Compound 9, 5-amino-3-(6-ethoxynaphthalen-2-yl)-1-(4-hydroxybutan-2-yl)-1H-pyrazole-4-carboxamide]
Efficacy in words ([3]; IFN-γ KO mice, 30 mg/kg BID for 5 days): remain a full log above the LLOD
Efficacy in words [3, 8]: efficacious
Efficacy (reduction in oocyst shedding / infection), in words ([3]; IFN-γ KO mice): significant reduction in oocyst shedding

CC(CCO)n1nc(-c2ccc3cc(OC4CC4)ccc3c2)c(C(N)=O)c1N (centres unmarked) [Compound 12, 5-amino-3-(6-cyclopropoxynaphthalen-2-yl)-1-(4-hydroxybutan-2-yl)-1H-pyrazole-4-carboxamide]
Liabilities: toxicity during efficacy study ([3]; IFN-γ KO mice efficacy study): Signs of toxicity during efficacy
Fecal concentration from 25 mg/kg dose [2]: 10.3 µM

CCOc1ccc2cc(-c3nn(C(C)(C)CCO)c(N)c3C(N)=O)ccc2c1 [Compound 15, 5-amino-3-(6-ethoxynaphthalen-2-yl)-1-(4-hydroxy-2-methylbutan-2-yl)-1H-pyrazole-4-carboxamide]
Toxicity to human cell lines (human cell lines): not toxic to a variety of human cell lines
Efficacy in words ([3]; IFN-γ KO mice, 5 mg/kg BID for 5 days): failed to provide an efficacious result
Efficacy in words ([3]; IFN-γ KO mice, 15 mg/kg BID for 5 days): failed to provide an efficacious result
Efficacy in words ([3]; IFN-γ KO mice, 30 mg/kg BID for 5 days, 30 mg/kg): efficacious; also recorded: reductions to below the LLOD
Log reduction (to below the LLOD) ([3]; IFN-γ KO mice, 60 mg/kg BID for 5 days): 4 log
Efficacy in words [3, 8]: failed to provide an efficacious result
Efficacy in words ([3]; IFN-γ KO mice, 120 mg/kg QD for 5 days): reductions to below the LLOD
Efficacy (reduction in oocyst shedding / infection), in words ([3]; IFN-γ KO mice): significant reduction in oocyst shedding
CBC and serum chemistry results [5]: within the normal range
Histological analysis of all major organs [5]: no abnormalities
Observable signs of toxicity ([5]; 150 mg/kg): Neither dose concentration showed any observable signs of toxicity

CCOc1ccc2cc(-c3nn(C(C)(C)CO)c(N)c3C(N)=O)cnc2c1 [Compound 19, 5-amino-3-(7-ethoxyquinolin-3-yl)-1-(1-hydroxy-2-methylpropan-2-yl)-1H-pyrazole-4-carboxamide]
Fecal concentration from 25 mg/kg dose [2]: 2.9 µM

CCOc1ccc2cc(-c3nn(C(C)(C)CO)c(N)c3C(N)=O)ccc2n1 [Compound 20, 5-amino-3-(2-ethoxyquinolin-6-yl)-1-(1-hydroxy-2-methylpropan-2-yl)-1H-pyrazole-4-carboxamide]
Efficacy in words ([3]; IFN-γ KO mice, 10 mg/kg BID): failed to provide a significant reduction from initial infection levels
Efficacy in words ([3]; IFN-γ KO mice, 20 mg/kg BID): failed to provide a significant reduction from initial infection levels
Efficacy in words [3, 8]: efficacious to the LLOD
Efficacy (reduction in oocyst shedding / infection), in words ([3]; IFN-γ KO mice): significant reduction in oocyst shedding
Fecal concentration from 25 mg/kg dose [2]: 0.41 µM

CCOc1ccc2cc(-c3nn(C(C)(C)CO)c(N)c3C(N)=O)ccc2c1 [Compound 21, 5-amino-3-(6-ethoxynaphthalen-2-yl)-1-(1-hydroxy-2-methylpropan-2-yl)-1H-pyrazole-4-carboxamide]
Efficacy (reduction in oocyst shedding / infection), in words ([3]; IFN-γ KO mice): failed to reduce infection; also recorded: Failed efficacy
Fecal concentration from 25 mg/kg dose [2]: 7.1 µM

CC(C)(CO)n1nc(-c2ccc3cc(OC4CC4)ccc3c2)c(C(N)=O)c1N [Compound 24, 5-amino-3-(6-cyclopropoxynaphthalen-2-yl)-1-(1-hydroxy-2-methylpropan-2-yl)-1H-pyrazole-4-carboxamide]
Efficacy (reduction in oocyst shedding / infection), in words ([3]; IFN-γ KO mice): significant reduction in oocyst shedding
Fecal concentration from 25 mg/kg dose [2]: 3.5 µM
Liabilities: in vivo cardiovascular [6]: In vivo cardiovascular liabilities (data not shown)

CC(C)(C)n1nc(-c2ccc3cc(OC4CC4)ccc3c2)c(C(N)=O)c1N [Compound 25, 5-amino-1-(tert-butyl)-3-(6-cyclopropoxynaphthalen-2-yl)-1H-pyrazole-4-carboxamide]
Plasma Concentration ([7]; 100 mg/kg): 19.9 ± 5.4 µM
Plasma Concentration ([7]; 100 mg/kg, 2 h): 49.2 ± 4.7 µM
Plasma Concentration ([7]; 250 mg/kg): 36.1 ± 16.7 µM
Efficacy in words ([3]; IFN-γ KO mice, 15 mg/kg QD for 5 days): failed to reduce infections from their initial levels
Efficacy in words ([3]; IFN-γ KO mice, 30 mg/kg QD for 5 days): reduced infection to below the LLOD
Efficacy in words [3, 8]: efficacious
Efficacy (reduction in oocyst shedding / infection), in words ([3]; IFN-γ KO mice): efficacious
Fecal concentration from 25 mg/kg dose [2]: 0.42 µM
CBC and serum chemistry results [5]: within the normal range
Histological analysis of all major organs [5]: no abnormalities
Observable signs of toxicity ([5]; 100 mg/kg): No signs of toxicity were observed
Observable signs of toxicity ([5]; 250 mg/kg): Minor signs of toxicity

CCOc1ccc2cc(-c3nn(CC4CC4)c(N)c3C(N)=O)ccc2c1 [Compound 27, 5-amino-1-(cyclopropylmethyl)-3-(6-ethoxynaphthalen-2-yl)-1H-pyrazole-4-carboxamide]
Efficacy (reduction in oocyst shedding / infection), in words ([3]; IFN-γ KO mice): Failed efficacy
Fecal concentration from 25 mg/kg dose [2]: 54 µM
